Measured values: patent US10399948B2, “Negative allosteric modulators of metabotropic glutamate receptor 3” (Vanderbilt University, priority 2015, dated 2019)
Where two headings read alike, the source gives them in different places.

Columns and labels:
Type in all cases: cell-based
rat mGlu3 = rat mGlu3 (Rattus norvegicus (Rat), UniProt P31422); experiment: mGlu3 Ca2+ flux assay; settings: for IC50: NAM, glutamate EC80, >10,000 = decrease without plateau, >30,000 = no measurable activity; for remaining activity at 30 µM: response at 30 μM test compound as percentage of maximal response to glutamate, read-out: rat mGlu3 Glu max (%)
rat mGlu3, sequence (P31422 23-879): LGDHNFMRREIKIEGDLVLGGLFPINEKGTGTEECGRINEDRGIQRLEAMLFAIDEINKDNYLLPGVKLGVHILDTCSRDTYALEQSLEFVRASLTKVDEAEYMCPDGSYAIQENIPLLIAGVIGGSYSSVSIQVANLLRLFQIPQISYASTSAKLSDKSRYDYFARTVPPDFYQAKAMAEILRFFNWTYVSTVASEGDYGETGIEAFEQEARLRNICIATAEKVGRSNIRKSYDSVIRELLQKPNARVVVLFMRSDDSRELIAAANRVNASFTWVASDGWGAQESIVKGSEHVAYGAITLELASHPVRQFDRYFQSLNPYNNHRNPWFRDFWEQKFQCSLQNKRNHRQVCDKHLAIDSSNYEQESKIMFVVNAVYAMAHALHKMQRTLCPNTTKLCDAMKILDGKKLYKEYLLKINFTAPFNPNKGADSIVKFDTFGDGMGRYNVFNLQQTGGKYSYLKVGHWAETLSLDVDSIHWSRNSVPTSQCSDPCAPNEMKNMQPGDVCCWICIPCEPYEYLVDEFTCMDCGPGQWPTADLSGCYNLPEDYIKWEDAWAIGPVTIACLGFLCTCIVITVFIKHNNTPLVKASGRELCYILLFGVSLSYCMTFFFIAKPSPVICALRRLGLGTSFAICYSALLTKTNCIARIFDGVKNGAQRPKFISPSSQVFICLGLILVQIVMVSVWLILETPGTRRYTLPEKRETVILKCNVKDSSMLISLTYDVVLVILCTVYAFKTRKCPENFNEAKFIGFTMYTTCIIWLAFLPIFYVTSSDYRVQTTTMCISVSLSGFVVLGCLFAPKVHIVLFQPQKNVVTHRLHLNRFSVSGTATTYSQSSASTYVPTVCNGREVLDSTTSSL
Description: Gα15/TREx cells stably expressing rat mGlu3 were plated in black-walled, clear-bottomed, poly-D-lysine coated 384-well plates in 20 μL of assay medium (DMEM containing 10% dialyzed FBS, 20 mM HEPES, 25 ng/mL tetracycline, 100 units/mL penicillin/streptomycin plus 250 ng/mL Fungizone, and 1 mM sodium pyruvate) at a density of 15K cells/well. The cells were grown overnight at 37° C. in the presence of 5% CO2. […] Dye was removed, 20 μL of assay buffer was added, and the plate was incubated for 10 minutes at room temperature.
(§1) Ca^2+ flux was measured using the Functional Drug Screening System (FDSS7000, Hamamatsu, Japan). After establishment of a fluorescence baseline for about 3 seconds, the compounds of the present invention were added to the cells, and the response in cells was measured. 2.3 minutes later an EC20 concentration of the mGlu3 receptor agonist glutamate was added to the cells, and the response of the cells was measured for 1.9 minutes; an EC80 concentration of agonist was added and readings taken for an additional 1.7 minutes. All test compounds were dissolved and diluted to a concentration of 10 mM in 100% DMSO. Compounds were then serially diluted 1:3 in DMSO into 10 point concentration response curves, transferred to daughter plates, and further diluted into assay buffer to a 2× stock. Calcium fluorescence measures were recorded as fold over basal fluorescence; raw data was then normalized to the maximal response to glutamate.
(§2) The raw data file containing all time points was used as the data source in the analysis template. This was saved by the FDSS as a tab-delimited text file. Data were normalized using a static ratio function (F/F0) for each measurement of the total 360 values per well divided by each well's initial value. Data were then reduced to peak amplitudes (Max−Initial Min) using a time range that starts approximately 3 seconds prior to the glutamate EC80 addition and continues for approximately 90 seconds. This is sufficient time to capture the peak amplitude of the cellular calcium response. Individual amplitudes were expressed as % EMax by multiplying each amplitude by 100 and then dividing the product by the mean of the amplitudes derived from the glutamate ECMax-treated wells. EC50 values for test compounds were generated by fitting the normalized values versus the log of the test compound concentration (in mol/L) using a 4 parameter logistic equation where none of the parameters were fixed. Each of the three values collected at each concentration of test compound were weighted evenly.

rat mGlu2 = rat mGlu2 (Rattus norvegicus (Rat), UniProt P31421); experiment: mGlu2 Ca2+ flux assay; settings: NAM, glutamate EC80; >30,000 = no measurable activity
rat mGlu2, sequence (P31421 19-872): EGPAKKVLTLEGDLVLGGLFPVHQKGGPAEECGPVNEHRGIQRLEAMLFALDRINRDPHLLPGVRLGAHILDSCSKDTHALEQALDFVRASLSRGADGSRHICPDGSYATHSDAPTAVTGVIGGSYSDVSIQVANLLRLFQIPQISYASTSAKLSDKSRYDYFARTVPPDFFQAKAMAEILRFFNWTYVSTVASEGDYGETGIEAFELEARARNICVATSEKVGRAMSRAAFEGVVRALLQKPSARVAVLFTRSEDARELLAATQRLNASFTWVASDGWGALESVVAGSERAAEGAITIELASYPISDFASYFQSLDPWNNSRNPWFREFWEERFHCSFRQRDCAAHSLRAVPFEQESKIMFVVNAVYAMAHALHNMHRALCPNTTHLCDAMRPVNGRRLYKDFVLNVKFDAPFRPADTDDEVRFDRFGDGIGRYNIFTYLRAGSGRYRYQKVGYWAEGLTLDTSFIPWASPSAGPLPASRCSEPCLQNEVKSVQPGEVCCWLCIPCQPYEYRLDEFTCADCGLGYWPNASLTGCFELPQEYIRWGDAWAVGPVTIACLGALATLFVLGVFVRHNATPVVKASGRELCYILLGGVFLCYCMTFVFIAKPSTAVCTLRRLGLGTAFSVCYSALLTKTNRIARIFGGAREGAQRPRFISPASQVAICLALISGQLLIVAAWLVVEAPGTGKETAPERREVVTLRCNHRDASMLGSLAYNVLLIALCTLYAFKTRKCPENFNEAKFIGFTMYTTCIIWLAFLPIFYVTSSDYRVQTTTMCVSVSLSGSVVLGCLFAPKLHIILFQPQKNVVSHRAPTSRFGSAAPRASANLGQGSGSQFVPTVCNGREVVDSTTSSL
Description: (§3) Gα15 HEK293 cells stably expressing rat mGlu2 were plated in black-walled, clear-bottomed, poly-D-lysine coated 384-well plates in 20 μL of assay medium (DMEM containing 10% dialyzed FBS, 20 mM HEPES, and 1 mM sodium pyruvate) at a density of 12K cells/well. The cells were grown overnight at 37° C. in the presence of 5% CO2. The next day, medium was removed and the cells incubated with 20 μL of […] Fluo-4, AM prepared as a 2.3 mM stock in DMSO and mixed in a 1:1 ratio with 10% (w/v) pluronic acid F-127 and diluted in assay buffer (Hank's balanced salt solution, 20 mM HEPES, and 2.5 mM probenecid) for 45 minutes at 37° C. Dye was removed, 20 μL of assay buffer was added, and the plate was incubated for 5 minutes at room temperature.
as §1, with “mGlu2” for “mGlu3”
as §2, with “ECMax” for “EMax”, “IC50” for “EC50”

rat mGlu5 = rat mGlu5 (Rattus norvegicus (Rat), UniProt P31424); experiment: mGlu5 Ca2+ flux assay; settings: for activity at 30 µM: response at 30 μM test compound as percentage of maximal response to glutamate, read-out: rat mGlu5 Glu max (%)
rat mGlu5, sequence (P31424 21-1203): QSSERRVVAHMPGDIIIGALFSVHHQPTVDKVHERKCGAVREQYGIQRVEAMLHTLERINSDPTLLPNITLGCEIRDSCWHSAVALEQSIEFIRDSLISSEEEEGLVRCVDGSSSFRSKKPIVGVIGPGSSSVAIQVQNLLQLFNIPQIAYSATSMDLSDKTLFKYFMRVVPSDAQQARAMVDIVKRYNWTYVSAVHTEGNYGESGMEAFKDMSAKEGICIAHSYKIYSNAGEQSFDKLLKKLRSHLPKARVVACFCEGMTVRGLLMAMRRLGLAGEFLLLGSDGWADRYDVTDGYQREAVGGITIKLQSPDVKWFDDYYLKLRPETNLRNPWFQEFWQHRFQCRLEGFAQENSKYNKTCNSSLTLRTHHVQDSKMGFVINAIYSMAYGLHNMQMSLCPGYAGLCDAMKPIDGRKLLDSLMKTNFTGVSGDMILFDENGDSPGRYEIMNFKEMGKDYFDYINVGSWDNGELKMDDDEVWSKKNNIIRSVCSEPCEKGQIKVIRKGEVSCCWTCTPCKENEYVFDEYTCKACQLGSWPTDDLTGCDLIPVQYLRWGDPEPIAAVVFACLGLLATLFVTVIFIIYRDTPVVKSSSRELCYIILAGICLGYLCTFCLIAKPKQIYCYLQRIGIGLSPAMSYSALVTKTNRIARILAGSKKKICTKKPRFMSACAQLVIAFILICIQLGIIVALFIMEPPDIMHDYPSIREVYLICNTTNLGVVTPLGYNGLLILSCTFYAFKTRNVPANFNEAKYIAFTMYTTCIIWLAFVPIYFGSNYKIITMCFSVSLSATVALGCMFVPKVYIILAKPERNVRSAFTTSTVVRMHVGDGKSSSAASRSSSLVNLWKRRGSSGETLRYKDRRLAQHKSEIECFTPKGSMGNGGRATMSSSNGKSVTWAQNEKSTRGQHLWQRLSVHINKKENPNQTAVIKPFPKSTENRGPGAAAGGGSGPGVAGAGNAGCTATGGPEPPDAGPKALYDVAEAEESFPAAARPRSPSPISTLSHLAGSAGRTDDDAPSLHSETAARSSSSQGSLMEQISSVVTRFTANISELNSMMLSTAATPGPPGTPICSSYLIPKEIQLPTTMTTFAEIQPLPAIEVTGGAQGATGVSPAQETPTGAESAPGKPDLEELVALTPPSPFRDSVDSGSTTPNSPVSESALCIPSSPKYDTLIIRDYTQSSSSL
Description: as §3, with “HEK 293A cells stably” for “Gα15 HEK293 cells stably”, “expressing rat mGlu5 were plated” for “expressing rat mGlu2 were plated”, “mM HEPES, 100 units/mL penicillin/streptomycin plus 250 ng/mL Fungizone, and 1” for “mM HEPES, and 1”, “density of 20K cells/well. The” for “density of 12K cells/well. The”
as §1, with “mGlu5” for “mGlu3”
as §2, with “EC20/EC80” for “EC80”, “90-120” for “90”

[1] = PAM, glutamate EC20, >10,000 = no plateau, >30,000 = no measurable activity, read-out: rat mGlu5 EC50 or IC50

SMILES	IC50 (rat mGlu3)	remaining activity at 30 µM (rat mGlu3)	IC50 (rat mGlu2)	EC50 (rat mGlu5; [1])	activity at 30 µM (rat mGlu5; PAM)	EC50 (rat mGlu5)
CC(COc1ccn(-c2ccc(F)cc2)c(=O)c1)Oc1ccccc1 (stereo not drawn) [Compound 1, 1-(4-Fluorophenyl)-4-(2-phenoxypropoxy)pyridin-2(1H)-one]	728 nM	0.69%	> 30000 nM	> 30000 nM	–	–
O=c1cc(OCCOc2ccc(Cl)cn2)ccn1-c1ccc(F)cc1 [Compound 55, 4-(2-((5-chloropyridin-2-yl)oxy)ethoxy)-1-(4-fluorophenyl)pyridin-2(1H)-one]	729 nM	0.32%	> 30000 nM	> 10000 nM	25.2%	–
N#Cc1cccc(-n2ccc(OCCOc3ccccc3)cc2=O)c1 [Compound 22, 3-(2-oxo-4-(2-phenoxyethoxy)pyridin-1(2H)-yl)benzonitrile]	559 nM	1.16%	> 30000 nM	6020 nM	87%	–
O=c1cc(OCCOc2ncccc2Cl)ccn1-c1ccc(F)cc1 [Compound 54, 4-(2-((3-chloropyridin-2-yl)oxy)ethoxy)-1-(4-fluorophenyl)pyridin-2(1H)-one]	443 nM	0.96%	> 30000 nM	7820 nM	94%	–
O=c1cc(OCCOc2ccc(F)nc2)ccn1-c1ccc(F)cc1 [Compound 45, 1-(4-fluorophenyl)-4-(2-((6-fluoropyridin-3-yl)oxy)ethoxy)pyridin-2(1H)-one]	701 nM	0.88%	> 30000 nM	> 10000 nM	35.5%	–
O=c1cc(OCCOc2ccccc2)ccn1-c1cccc(F)c1 [Compound 19, 1-(3-fluorophenyl)-4-(2-phenoxyethoxy)pyridin-2(1H)-one]	434 nM	2.01%	> 30000 nM	–	88%	1970 nM
O=c1nc(OCCOc2ccccc2)ccn1-c1ccc(F)cc1 [Compound 17, 1-(4-Fluorophenyl)-4-(2-phenoxyethoxy)pyrimidin-2(1H)-one]	211 nM	1.84%	> 30000 nM	1190 nM	96.8%	–
N#Cc1cc(F)cc(-n2ccc(OCCOc3ccccc3)cc2=O)c1 [Compound 23, 3-fluoro-5-(2-oxo-4-(2-phenoxyethoxy)pyridin-1(2H)-yl)benzonitrile]	522 nM	3.44%	> 30000 nM	1310 nM	26.8%	–
O=c1cc(OCCOc2ccc(F)cc2)ccn1-c1ccc(F)cc1 [Compound 32, 4-(2-(4-fluorophenoxy)ethoxy)-1-(4-fluorophenyl)pyridin-2(1H)-one]	1050 nM	-0.56%	> 30000 nM	1500 nM	94.1%	–
O=c1cc(OCCOc2ccccc2)ccn1-c1ccc(F)c(F)c1 [Compound 20, 1-(3,4-difluorophenyl)-4-(2-phenoxyethoxy)pyridin-2(1H)-one]	323 nM	1.63%	> 30000 nM	–	91%	344 nM
CC(COc1ccccc1)Oc1ccn(-c2ccc(F)cc2)c(=O)c1 (stereo not drawn) [Compound 5, 1-(4-fluorophenyl)-4-((1-phenoxypropan-2-yl)oxy)pyridin-2(1H)-one]	1160 nM	1.6%	> 30000 nM	> 10000 nM	42.5%	–
O=c1cc(OCCOc2ccccc2)ncn1-c1ccc(F)cc1 [Compound 28, 3-(4-Fluorophenyl)-6-(2-phenoxyethoxy)pyrimidin-4(3H)-one]	1270 nM	10.1%	> 30000 nM	1220 nM	89.8%	–
O=c1nc(OCCOc2ccccc2)ccn1-c1ccc(F)c(F)c1 [Compound 15, 1-(3,4-difluorophenyl)-4-(2-phenoxyethoxy)pyrimidin-2(1H)-one]	219 nM	2.44%	> 30000 nM	427 nM	83%	–
O=c1cc(OCCOc2ccc(Cl)cc2)ccn1-c1ccc(F)cc1 [Compound 39, 4-(2-(4-chlorophenoxy)ethoxy)-1-(4-fluorophenyl)pyridin-2(1H)-one]	634 nM	1.56%	> 30000 nM	10000 nM	81.1%	–
